# According to patent US7514257B2, “Zinc finger transcription factor differentiation proteins” (ToolGen, Inc., priority 2001, dated 2009):
# Values joined by “and” are separate entries in the source; they are usually repeats but may differ in a detail not shown here. Identical values can stand only once.
# Key:
# [1] = system: mouse neuroblastoma Neuro2a cells; assay: Neurite formation in Neuro2A cells; format: cell-based
# Description: Mouse neuroblastoma Neuro2a cells were maintained in MEM-a media with 10% FBS and antibiotics at 37° C., in a humidified atmosphere containing 95% air and 5% CO2. Cells were seeded at 8.0·10^3 cells per 96-well culture plate and then were transfected using LIPOFECTAMINE PLUS™ reagent (Invitrogen,CA) according to the manufacturer's protocol, with 50 ng of ZFP, together with 20 ng of LacZ reporter plasmid. In vitro differentiation was carried out with or without retinoic acid (RA) (10 μM) respectively, and G418 (1 mg/ml) was treated 24 hours after transfection to reduce the number of untransfected cells. Cells were then cultured for 96 hours and then fixed, stained for β-galactosidase activity, and photographed. Among β-galactosidase-positive cells, cells were regarded as differentiated if the length of neurite extension was at least two times the diameter of the cell body.
# To screen for ZFP-TFs that can induce neuronal differentiation, Neuro2A cells were transiently transfected with library plasmids and a reporter plasmid that includes the LacZ gene. LacZ expression was used to visualize the morphology of transfected cells. Because the differentiating cells grow slower than non-differentiating cells and the latter will dominate the cell population, we treated the cell culture with G418 24 hr after transfection to reduce the number of untransfected cells. After five days, cells were fixed and LacZ-stained. We then characterized the cells by their morphological characteristics. In particular, we identified cells with increased neurite length and thickness.
# yeast strain YPH499a = assay: Ketoconazole resistance of yeast transformants; format: cell-based, Saccharomyces cerevisiae; conditions: 10^7 cells plated on synthetic media
# Description: To check the fungistatic response of the tester strain YPH499a to ketoconazole, 10^7 cells of the YPH499a strain were plated onto synthetic media containing different concentrations of the drug.
# 1×10^7 yeast cells containing plasmids from the 3-finger and 4-finger libraries were cultivated in synthetic liquid medium with 2% galactose for 3 hours at 30° C. to induce zinc finger protein expression and then were plated onto synthetic galactose agar plates containing 35 μM ketoconazole (ICN Biomedicals). After fours days of incubation at 30° C., about 120 clones formed colonies on galactose media containing 35 μM ketoconazole. These ketoconazole resistant yeast colonies were picked and streaked on fresh synthetic galactose agar plates containing 35 μM ketoconazole. 23 clones were randomly selected from the 120 resistant clones. For each of these 23 clones, the resistant phenotype was verified by plasmid rescue. […]
# In one experiment, 5×10^4 cells from each transformant were serially diluted (10^−1, 10^−2, and 10^−3 fold) and spotted on galactose or glucose media supplemented without or with 35 μM ketoconazole. Growth of the cells was monitored after four days at 30° C. and compared to controls on the same plate. […]
# [2] = system: transcripts of human embryonic kidney 293 cells; assay: Transcript profiling of 293 cells expressing F121_p65; format: cell-based
# Description: DNA microarrays containing 7458 human EST clones were obtained from Genomictree (Korea). FlpTRex-293 cells stably expressing ZFP-TFs were grown with (+Dox) or without Dox) 1 μg/ml Doxycycline for 48 hours. Total RNA was prepared from each sample. RNA from the −Dox sample was used as a reference (Cy3), and +Dox as the experimental sample (Cy5). Microarray analysis was performed according to the manufacturer's protocols. Spots with sum of median less than 500 were colored red and not analyzed.
# The zinc finger protein F121_p65 was expressed in human embryonic kidney 293 cells. […] F121_p65 increases transcription of insulin-like growth factor 2, among other genes.
# CMV-Luc reporter = CMV-Luc reporter in 293F cells; format: cell-based, human; conditions: for CMV-Luc, average: Vector (HANLS) = 1
# Description: For the luciferase assay, 5 ng of both CMV-luciferase and pRL-SV40 plasmid were co-transfected with 50 ng of ZFP coding plasmids to 293 cells seeded in wells of a 96 well plate. After 3 days of incubation, cells were harvested and the luciferase assay was done by a Dual Luciferase reporter assay system (Promega) as recommended by the manufacturer.
# (§1) To investigate this point, an extensive screening had been carried out using the SEAP reporter under the control of CMV promoter (CMV-SEAP) in 293F cells. Two ZFPs, K44—11_D01 and K44—11_G12, that increase activity of the SEAP protein were isolated. These two ZFPs were further tested using two other reporter plasmids, SV40-SEAP and the luciferase reporter under the control of CMV promoter (CMV-Luc). […] Thus, K44—11_G12 may be used increase the production of proteins generally in cells, e.g., eukaryotic cells.
# SV40-SEAP reporter = SV40-SEAP reporter in 293F cells; format: cell-based, human; conditions: for SV40-SEAP, average: Vector (HANLS) = 1
# Description: (§2) Three days after transfection, medium was transferred to the new tubes and heated for 30 minutes at 65° C. to inactivate the endogenous alkaline phosphatase. 25 μl of medium was mixed with the same volume of 2×SEAP assay buffer (2 M Diethanolamine (pH 9.8) 10 ml, 1 M MgCl2 10 μl, 1 M homoarginine 200 μl, pNitro phenyl phosphate 44.52 mg). Absorbance at 405 nm was measured after the indicated incubation times at 37° C.
# as §1, with “(CMV-Luc). […].” for “(CMV-Luc).”
# CMV-SEAP reporter = CMV-SEAP reporter in 293F cells; format: cell-based, human; conditions: for CMV-SEAP, average: Vector (HANLS) = 1
# Description: as §2, §1
# 293 cells = assay: Cell growth of transfected 293 cells (cell count confirming MTT assay); format: cell-based, human; conditions: for relative cell number, average: three days after transfection, relative to parental vector
# Description: MTT assay is used to measure cell growth. Tetrazolium MTT reduced by metabolically active cells […] color indicates the number of viable cells. MTT assay was done using a MTT assay kit (Trevigen). The MTT assay was done at three days after transfection. Briefly, 10 μl of MTT solution was added directly to the culture medium and incubated for two hours in a CO2 incubator. Then, 100 μl of detergent solution from the MTT assay kit was added and incubated in the dark for two hours before measurement of absorbance at 570 nm was measured using a Power-Wave 340× (Bio-Tek Instrument).
# To count cell numbers, 293 cells were seeded at 1.5·10^4 cells/well in a 24 well plate one day before transfection. Three days after transfection with 200 ng of ZFP-coding nucleic acid or control vector plasmids, cells were washed with PBS once and suspended in 30 ul of TE (10 mM Tris 1 mM EDTA, pH 8.0) buffer and counted by hematocytometery.
# To confirm the MTT assay, the cell numbers were counted after transfection of K_D10 and K_F02 in 293 cells. The result was compared to the cell number of the well transfected with the parental vector, converted to relative percentages and shown in Table 13. […] The P values for K_D10 and K_F02 are 0.001 and 0.01, respectively. For sequence information, see FIGS. 18 and 19.
# C2C12 myoblasts = assay: ALP staining for transdifferentiation of C2C12 myoblasts to osteoblasts; format: cell-based, mouse; conditions: absence of BMP-2, seven days after transfection
# Description: We screened for chimeric zinc finger proteins that induce transdifferentiation of C2C12 myoblasts to osteoblasts in the absence of BMP-2. We transiently transfected a nucleic acid library encoding chimeric zinc finger proteins into C2C12 cells and screened for cells that undergo transdifferentiation in the absence of BMP-2. Seven days after transfection, the transformed cells were stained for alkaline phosphatase (ALP), a marker for osteoblasts (Katagiri, T. et al., (1994) J. Cell. Biol. 127:1755).
# For these experiments, the mouse myoblast cell line, C2C12, was maintained in Dulbecco's Modified Eagle's Medium (DMEM) with 4.5 g/L glucose, 10% FBS, and antibiotics, at 37° C., in a humidified atmosphere containing 95% air and 5% CO2. Cells were seeded at 1.0·10^4 cells per 96-well culture plates. […] Twenty-four hours after transfection, the growth medium was replaced with DMEM containing 2% FBS, and the cells were cultured for an additional six days.
# To examine the differentiation of C2C12 cells to osteoblasts, ALP staining was performed as described in Katagiri, T. et al., (1994) J. Cell.
# [3] = system: SV40-SEAP reporter (pSEAP2-control); assay: SEAP assay, SV40-SEAP reporter in 293 cells; format: cell-based, human
# Description: Human embryonic kidney 293 cells were cultured with 100 μl of DMEM with 10% of FBS in a humidified atmosphere containing 95% air and 5% CO2 and seeded in wells of a 96 well plates 1 day ahead of transfection. The plasmids were isolated from individual colonies of each library separately and transfected into 293 cells LIPOFECTAMINE PLUS™ (Invitrogen) as recommended by the manufacturer. For MTT assay, 50 ng of plasmids containing zinc finger protein gene fused to the functional domains were transfected into cells cultured at 5·10^3 cells/well. For the SEAP assay, 10 ng of pSEAP2-control (Clontech) plasmid was co-transfected with 50 ng of plasmids containing zinc finger protein gene fused to the functional domains into cells cultured at 1·10^4 cells/well. The transfected cells were incubated at 37° C. for three days before assays.
# as §2
# We tested whether library nucleic acids could alter expression of a heterologous nucleic acid. SEAP (secretory alkaline phosphatase) was used as a reporter protein to test whether a ZFP can affect amount of foreign protein produced intracellularly.
molecule,measurement,setting,value
"CC1=C(/C=C/C(C)=C/C=C/C(C)=C/C(=O)O)C(C)(C)CCC1 [RA, retinoic acid, reference compound]",Percentage of neurite bearing cells,[1]; RA 10 uM,14.93 ± 7.69%
"CC(=O)N1CCN(c2ccc(OCC3COC(Cn4ccnc4)(c4ccc(Cl)cc4Cl)O3)cc2)CC1 (stereo not shown) [ketoconazole, Ketoconazole]",ketoconazole concentration that inhibited growth of YPH499a cells,yeast strain YPH499a,35 µM
F121_p65: ZFP QSHT-RSHR-RDHT-p65 (SEQ ID NO:20),Norm ratio of medians (ROM),"[2]; FK506-binding protein 8 (38 kD), ID N95418",8.66
same,Norm ratio of medians (ROM),"[2]; Fn14 for type I transmenmbrane protein, ID AI221536",5.06
same,Norm ratio of medians (ROM),"[2]; brain-specific protein p25 alpha, ID AA133959",5.71
same,Norm ratio of medians (ROM),"[2]; cadherin 13, H-cadherin (heart), ID R41787",7.34 and 5.90
same,Norm ratio of medians (ROM),"[2]; cellular retinoic acid-binding protein 2, ID AA598508",10.30
same,Norm ratio of medians (ROM),"[2]; cyclin D1 (PRAD1: parathyroid adenomatosis, ID AA487486)",5.27
same,Norm ratio of medians (ROM),"[2]; cysteine-rich protein 2, ID AA485427",6.71
same,Norm ratio of medians (ROM),"[2]; growth arrest and DNA-damage-inducible, ID AA404666",5.55
same,Norm ratio of medians (ROM),"[2]; insulin-like growth factor 2, ID H59614",17.71 and 16.88
same,Norm ratio of medians (ROM),"[2]; insulin-like growth factor 2, ID N54596",14.40
same,Norm ratio of medians (ROM),"[2]; jun B proto-oncogene, ID N94468",11.61
same,Norm ratio of medians (ROM),"[2]; ketohexokinase (fructokinase), ID T61256",5.28
same,Norm ratio of medians (ROM),"[2]; lymphocyte antigen 6 complex, locus H, ID AI929550",5.50
same,Norm ratio of medians (ROM),"[2]; nuclear factor of activated T-cells, ID AA679278",9.64
same,Norm ratio of medians (ROM),"[2]; protein phosphatase 2, regulatory subunit, ID R59165",9.89 and 8.60
same,Norm ratio of medians (ROM),"[2]; protein tyrosine phosphatase, receptor, ID R45941",16.45
same,Norm ratio of medians (ROM),"[2]; putative gene product, ID H09111",12.35
same,Norm ratio of medians (ROM),"[2]; tumor necrosis factor (ligand) superfamily, ID AI347622",6.15
same,Norm ratio of medians (ROM),"[2]; unnamed (—), ID AA045731",5.27
same,Norm ratio of medians (ROM),"[2]; zinc finger protein homologous to Zfp-36, ID R38383",6.46
K44_11_D01: ZFP QSHV-QSNI-QTHR1-CSNR1 with kid repression domain (SEQ ID NO:14),activation of CMV-Luciferase (in words),CMV-Luc reporter,not the CMV-Luciferase
same,"CMV-Luc, average",CMV-Luc reporter,0.87
same,activation of SV40-SEAP (in words),SV40-SEAP reporter,showed activation of SV40-SEAP
same,"SV40-SEAP, average",SV40-SEAP reporter,3.66
same,increase of SEAP activity compared to parental plasmid (vector),CMV-SEAP reporter,approximately 3 fold
same,"CMV-SEAP, average",CMV-SEAP reporter,3.49
K44_11_G12: ZFP QSHV-VSTR-RDNQ-QTHR1 with kid repression domain (SEQ ID NO:16),activation of CMV-luciferase,CMV-Luc reporter,2-3 fold
same,"CMV-Luc, average",CMV-Luc reporter,2.75
same,activation of SV40-SEAP,SV40-SEAP reporter,2-3 fold
same,"SV40-SEAP, average",SV40-SEAP reporter,2.14
same,increase of SEAP activity compared to parental plasmid (vector),CMV-SEAP reporter,approximately 3 fold
same,"CMV-SEAP, average",CMV-SEAP reporter,2.82
K_D10: ZFP QSHV-WSNR-WSNR-RDNQ with kid repression domain (SEQ ID NO:10),inhibition of cell growth compared to parental vector,293 cells,approximately 3 fold
same,"relative cell number, average",293 cells,27.4%
K_F02: ZFP DSAR2-RDKR-RDER1-QTHR1 with kid repression domain (SEQ ID NO:12),activation of cell growth compared to the control,293 cells,2.7 fold
same,"relative cell number, average",293 cells,279.3%
Neuro1-p65: chimeric ZFP QSNR1-QSNK-CSNR1 with p65 activation domain (SEQ ID NO:2),Percentage of neurite bearing cells,[1]; No RA,42.39 ± 5.56%
same,Percentage of neurite bearing cells,[1]; RA 10 uM,41.59 ± 6.46%
same,neuritogenesis,[1]; cells treated with 10 μM RA,marked acceleration of neuritogenesis
same,neuritogenesis / differentiation (length and thickness of neurites),[1]; without RA,most prominent effect on differentiation
Osteo1-p65: four-finger ZFP RDKR-QTHR1-VSTR-RDKR with p65 activation domain (SEQ ID NO:4),cells with strong ALP staining,C2C12 myoblasts,about 30%
P_B08: ZFP QSNR1-DSNR-DSNR with p65 activation domain (SEQ ID NO:8),Absorbance (405 nm),"[3]; SEAP reporter activity, three days after transfection",2.40
same,"SV40-SEAP reporter, average",[3]; Vector (HANLS) = 1,16.51
same,increase of SEAP activity compared to parental plasmid,[3]; retest,approximately 16 fold
